Ends that are not written are not given here.
Experiments:
Rho = system: Rho; parameters: method as in 2 sources, one per row (each row's own in cited_ref): ref [23] = [23]; PMID 8466900; doi:10.1021/bi00065a007; 23 Zwiefka A. Kohn H. Widger W.R. Transcription termination factor rho: The site of Bicyclomycin inhibition in Escherichia coli Biochemistry 32 1993 3564 3570 8466900 10.1021/bi00065a007 ||| ref [24], [25], [26] = [24]; PMID 17565995; doi:10.1074/jbc.M702010200; 24 Gutiérrez P. Kozlov G. Gabrielli L. Elias D. Osborne M.J. Gallouzi I.E. Gehring K. Solution structure of YaeO, a rho-specific inhibitor of transcription termination J. Biol. Chem. 282 2007 23348 23 || [25]; PMID 21673658; doi:10.1038/emboj.2011.192; 25 Rabhi M. Espéli O. Schwartz A. Cayrol B. Rahmouni A.R. Arluison V. Boudvillain M. The Sm-like RNA chaperone Hfq mediates transcription antitermination at Rho-dependent terminators EMBO J. 30 2011 2 || [26]; PMID 31628950; doi:10.1016/j.jmb.2019.09.019; 26 Pal K. Yadav M. Jain S. Ghosh B. Sen R. Sen U. Vibrio cholerae YaeO is a structural homologue of RNA chaperone Hfq that inhibits rho-dependent transcription termination by dissociating its hexameri; conditions: cited from earlier work; for Rho antagonism (in words): ref [24], [25], [26]
E. coli Rho [1] = experiment: single round in vitro Rho-dependent transcription termination, T7A1-trpt′ template; format: biochemical, Escherichia coli; conditions: data not shown
[2] = system: Rho mutants, R144E, R146E, and E148R; format: cell-based, Escherichia coli; conditions: 0 and 100 μM IPTG
[3] = system: Rho-dependent termination (galEP3 reporter); experiment: in vivo Rho-dependent termination, galEP3 reporter, MacConkey-galactose plates; format: cell-based, Escherichia coli; conditions: MC4100 galEP3, MacConkey-galactose plates, overexpression
E. coli MG1655 = format: cell-based, Escherichia coli; conditions: MG1655, pNL150, IPTG induction (100 μM), LB, 37 °C, 6 h; three independent colonies
[4] = system: Rho-dependent termination (trpt′ and trac terminators, lacZ reporter); format: cell-based, Escherichia coli; conditions: Fig. 3
[5] = pH 5.5
P167L Rho [6] = molecular target: P167L Rho (Escherichia coli, UniProt P0AG30, P167L); experiment: biochemical; format: binding; conditions: ITC
E. coli Rho [7] = experiment: Rho-mediated RNA release from stalled (roadblocked) elongation complex; format: biochemical, Escherichia coli; conditions: Fig. S4B; for inhibition of Rho-induced RNA release from stalled EC (in words): Fig. 3E
CD spectrometry = format: physicochemical; conditions: 10 mM 2-(N-morpholino)ethanesulfonic acid pH 5.5, 190 to 270 nm, 25 °C
P167L Rho [8] = molecular target: T1, P167L Rho (E. coli, UniProt P0AG30 1-419, P167L); experiment: pull-down; His-tagged peptides (30 μg peptide 16, 20 μg peptide 33) or His-tagged WT Psu (15 μg) bound to Ni-NTA beads at 4 °C for 12 to 16 h in 100 mM NaH2PO4 pH 8.0, 100 mM NaCl, 10 mM imidazole, 1 mM PMSF; 5 μg non-His-tagged P167L Rho added with 1 mM ATP, 37 °C, 20 min; wash 50 mM imidazole, elution 500 mM imidazole; SDS-Tricine PAGE; conditions: both partners purified
T1 construct: also called Rho P167L; non-His-tagged P167L Rho

C=C1CCO[C@]2([C@@H](O)[C@@](C)(O)CO)NC(=O)[C@@]1(O)NC2=O [bicyclomycin]
Rho inhibition (in words) (Rho; ref [23]): directly binds near the ATP-binding sites and inhibits Rho functions

MHHHHHHTPAQGMIFSVKVRTGITSVSVKAWLFWRMREDFQPDTD [peptide 16]
effect in transcription termination assay with Rho (in words) (E. coli Rho [1]): much less
peptide-induced growth defect with Rho mutants (in words) [2]: could not prevent the peptide-induced growth defect
colour of colonies, galEP3 reporter (in words) [3]: appearance of red colonies
growth defect upon expression (in words) (E. coli MG1655): severe growth defects
in vivo antitermination / Rho inhibitory properties (in words) [4]: strong in vivo antitermination of Rho-dependent termination
solubility at mildly acidic pH (in words) [5]: properly soluble at a mildly acidic pH
Kd (P167L Rho [6]; Kd, 1 μM Rho P167L, 50 μM peptide, 1 mM ATP, pH 8.0, 25 °C, average of three experiments ± SD, Fig. 4B): 214 ± 113 nM
binding affinity and stoichiometry (in words) (P167L Rho [6]; compared with peptide 33): binds with much weaker affinity and with significantly reduced stoichiometry
inhibition of Rho-induced RNA release from stalled EC (in words) (E. coli Rho [7]): significantly inhibited
inhibition of Rho-induced RNA release from stalled EC (in words) (E. coli Rho [7]; listed as Peptide 16): could efficiently inhibit the RNA release of Rho only when stalled EC was used
Frac. of RNA released (%) (E. coli Rho [7]; peptide 25, Rho 50 nM): 38 ± 2%
Frac. of RNA released (%) (E. coli Rho [7]; peptide 50, Rho 50 nM): 22 ± 0.8%
Frac. of RNA released (%) (E. coli Rho [7]; peptide 100, Rho 50 nM): 13 ± 2%
secondary structure by CD (in words) (CD spectrometry): predominantly α-helical

Hfq: PBS-binding Rho antagonist
Rho antagonism (in words) (Rho): PBS-binding Rho antagonists

B1: His-tagged WT Psu (polarity suppression protein, bacteriophage P4 capsid protein) (natural protein)
chain: MESTALQQAFDTCQNNKAAWLQRKNELAAAEQEYLRLLSGEGRNVSRLDELRNIIEVRKWQVNQAAGRYIRSHEAVQHISIRDRLNDFMQQHGTALAAALAPELMGYSELTAIARNCAIQRATDALREALLSWLAKGEKINYSAQDSDILTTIGFRPDVASVDDSREKFTPAQNMIFSRKSAQLASRQSV
binding result (P167L Rho [8]): binds

B2: YaeO: PBS-binding Rho antagonist (protein, UniProt P0AFW8 1-84, looked up)
Protein rof: MNDTYQPINCDDYDNLELACQHHLMLTLELKDGEKLQAKASDLVSRKNVEYLVVEAAGETRELRLDKITSFSHPEIGTVVVSES
Rho antagonism (in words) (Rho): PBS-binding Rho antagonists

— PMC8141534 (The Journal of Biological Chemistry, 2021)
